Measured values: US9840478B2 (MERCK SHARP & DOHME CORP., priority 2013, dated 2017)

Test system: HIV-1 (H9IIIB strain)
Test: Cell-based HIV infection assay using a reporter (Cell-Based), MT4-GFP cells
Conditions: Human immunodeficiency virus 1, MT4-GFP cells infected with HIV-1 H9IIIB; 50% normal human serum; mean of at least two independent experiments; read-out: Cell-based IP
Method in brief: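 IC50 from 4-parameter dose-response of % viral growth inhibition, using the 48 h/24 h infected-cell ratio scaled between DMSO and a protease/integrase/NNRTI triple-drug control. Assay used MT4 cells with HIV-LTR-GFP reporter, pre-infected 24 h with HIV-1 H9IIIB, in 50% normal human serum.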

Compared with `C[C@H]1CNC[C@H](CCc2c(F)cccc2NC(=O)[C@@H](N)[C@@H](c2ccc(Cl)cc2)c2cc(F)cc(F)c2)N1S(C)(=O)=O` [Example 198, (βS)-4-chloro-β-(3,5-difluorophenyl)-N-(3-fluoro-2-{2-[(2S,6S)-6-methyl-1-(methylsulfonyl)piperazin-2-yl]ethyl}phenyl)-L-phenylalaninamide], `C[C@H]1CNC[C@H](CCc2c(F)cccc2NC(=O)[C@@H](N)[C@@H](c2ccc(Cl)cc2)c2cccc(F)c2)N1S(C)(=O)=O` [Example 108, (βS)-4-chloro-N-(3-fluoro-2-{2-[(2S,6S)-6-methyl-1-(methylsulfonyl)piperazin-2-yl]ethyl}phenyl)-β-(3-fluorophenyl)-L-phenylalaninamide] is 1.5-fold higher in IC50: 0.021 µM for the first, 0.032 µM for the second.

`COC(=O)N[C@H](C(=O)Nc1cncc(F)c1CC[C@H]1CNC[C@H](C)N1S(=O)(=O)c1ccccc1Cl)[C@@H](c1ccc(F)cc1)c1cc(F)cc(F)c1` [Example 272, (βS)-N-[4-(2-{(2S,6S)-1-[(2-chlorophenyl)sulfonyl]-6-methylpiperazin-2-yl}ethyl)-5-fluoropyridin-3-yl]-β-(3,5-difluorophenyl)-4-fluoro-Nα-(methoxycarbonyl)-L-phenylalaninamide] and `C[C@H]1CNC[C@H](CCc2c(F)cncc2NC(=O)[C@@H](N)[C@@H](c2ccc(F)cc2)c2cc(F)cc(F)c2)N1S(=O)(=O)c1ccccc1Cl` [Example 245, (βS)-N-[4-(2-{(2S,6S)-1-[(2-chlorophenyl)sulfonyl]-6-methylpiperazin-2-yl}ethyl)-5-fluoropyridin-3-yl]-β-(3,5-difluorophenyl)-4-fluoro-L-phenylalaninamide] are within 1.5-fold of each other in IC50: 0.049 µM for the first, 0.051 µM for the second.

Going from `COC(=O)N[C@H](C(=O)Nc1cncc(F)c1CC[C@H]1CNCCN1S(=O)(=O)c1ccccc1)[C@@H](c1ccc(Cl)cc1)c1cccc(F)c1` [Example 53, (βS)-4-chloro-β-(3-fluorophenyl)-N-(5-fluoro-4-{2-[(2S)-1-(phenylsulfonyl)piperazin-2-yl]ethyl}pyridin-3-yl)-Nα-(methoxycarbonyl)-L-phenylalaninamide] to `COC(=O)N[C@H](C(=O)Nc1cccc(F)c1CC[C@H]1CNCCN1S(=O)(=O)c1ccccc1)C(c1cc(F)cc(F)c1)c1cc(F)cc(F)c1` [Example 51, β-(3,5-difluorophenyl)-3,5-difluoro-N-(3-fluoro-2-{2-[(2S)-1-(phenylsulfonyl)piperazin-2yl]ethyl}phenyl)-Nα-(methoxycarbonyl)-L-phenylalaninamide], the IC50 rises from 0.0065 µM to 0.011 µM (1.7-fold). The first is the more potent here.

Compared with `C[C@@H]1CNC[C@H](CCc2c(F)cccc2NC(=O)[C@@H](N)[C@@H](c2ccc(F)cc2)c2cc(F)cc(F)c2)N1S(=O)(=O)c1ccccc1Cl` [Example 230, (βS)-N-[2-(2-{(2S,6R)-1-[(2-chlorophenyl)sulfonyl]-6-methylpiperazin-2-yl}ethyl)-3-fluorophenyl]-β-(3,5-difluorophenyl)-4-fluoro-L-phenylalaninamide], `COc1ccc(S(=O)(=O)N2[C@@H](CCc3c(F)cccc3NC(=O)[C@@H](N)[C@@H](c3ccc(F)cc3)c3cc(F)cc(F)c3)CNC[C@@H]2C)cc1` [Example 251, (βS)-β-(3,5-difluorophenyl)-4-fluoro-N-[3-fluoro-2-(2-{(2S,6S)-1-[(4-methoxyphenyl)sulfonyl]-6-methylpiperazin-2-yl}ethyl)phenyl]-L-phenylalaninamide] is 71-fold lower in IC50: 0.29 µM for the first, 0.0041 µM for the second. The second is the more potent here.

First: C[C@@H]1CNC[C@H](CCc2c(F)cccc2NC(=O)CC(c2ccc(F)cc2)c2ccc(F)cc2)N1S(=O)(=O)c1ccccc1 [Example 90, N-(3-fluoro-2-{2-[(2S,6R)-6-methyl-1-(phenylsulfonyl)piperazin-2-yl]ethyl}phenyl)-3,3-bis(4-fluorophenyl) propanamide]
Second: C[C@H]1CNC[C@H](CCc2c(F)cccc2NC(=O)[C@@H](N)[C@H](c2cncc(F)c2)c2cccc(Cl)c2)N1S(=O)(=O)c1ccccc1 [Example 219, (βS)-3-chloro-N-(3-fluoro-2-{2-[(2S,6S)-6-methyl-1-(phenylsulfonyl)piperazin-2-yl]ethyl}phenyl)-β-(5-fluoropyridin-3-yl)-L-phenylalaninamide]
The IC50 of the first is 2.6-fold higher: 0.066 µM for the first, 0.025 µM for the second.

Going from `O=C(C[C@@H](c1ccc(F)cc1)c1cc(F)cc(F)c1)Nc1cncc(F)c1CC[C@H]1CNCCN1S(=O)(=O)N1CCOCC1` [Example 326, (3S)-3-(3,5-difluorophenyl)-N-(5-fluoro-4-{2-[(2S)-1-(morpholin-4-ylsulfonyl)piperazin-2-yl]ethyl}pyridin-3-yl)-3-(4-fluorophenyl)propanamide] to `O=C(C[C@@H](c1ccc(F)cc1)c1cc(F)cc(F)c1)Nc1cncc(F)c1CC[C@H]1CNCCN1S(=O)(=O)N1CCC(F)(F)CC1` [Example 330, (3S)-3-(3,5-difluorophenyl)-N-[4-(2-{(2S)-1-[(4,4-difluoropiperidin-1-yl)sulfonyl]piperazin-2-yl}ethyl)-5-fluoropyridin-3-yl]-3-(4-fluorophenyl)propanamide], the IC50 rises from 0.008 µM to 0.043 µM (5.4-fold).

Compared with `O=C(CC1(c2ccc(Cl)cc2)CCOCC1)Nc1cncc(F)c1CC[C@H]1CNCCN1S(=O)(=O)C1CC1` [Example 62, 2-[4-(4-chlorophenyl)tetrahydro-2H-pyran-4-yl]-N-(4-{2-[(2S)-1-(cyclopropylsulfonyl)piperazin-2-yl]ethyl}-5-fluoropyridin-3-yl)acetamide], `COC(=O)N[C@H](C(=O)Nc1cncc(F)c1CC[C@H]1CNCCN1S(=O)(=O)C1CC1)[C@@H](c1ccc(F)cc1)c1cc(F)cc(F)c1` [Example 50, (βS)-N-(4-{2-[(2S)-1-(cyclopropylsulfonyl)piperazin-2-yl]ethyl}-5-fluoropyridin-3-yl)-3,5-difluoro-β-(4-fluorophenyl)-Nα-(methoxycarbonyl)-L-phenylalaninamide] is 25-fold lower in IC50: 0.52 µM for the first, 0.021 µM for the second. The second is the more potent here.

`COC(=O)N[C@H](C(=O)Nc1cncc(F)c1CC[C@H]1CNC[C@H](C)N1S(=O)(=O)c1ccc(OC)cc1)[C@@H](c1ccc(Cl)cc1)C1CCOCC1` [Example 136, (βR)-4-chloro-N-[5-fluoro-4-(2-{(2S,6S)-1-[(4-methoxyphenyl)sulfonyl]-6-methylpiperazin-2-yl}ethyl)pyridin-3-yl]-Nα-(methoxycarbonyl)-β-(tetrahydro-2H-pyran-4-yl)-L-phenylalaninamide] and `COC(=O)N[C@H](C(=O)Nc1cccc(F)c1CC[C@H]1CNC[C@@H](C)N1S(=O)(=O)c1ccc(F)cc1)[C@@H](c1ccc(Cl)cc1)C1CCOCC1` [Example 18, Methyl ((1R,2S)-1-(4-chlorophenyl)-3-((3-fluoro-2-(2-((2S,6R)-1-((4-fluorophenyl)sulfonyl)-6-methylpiperazin-2-yl)ethyl)phenyl)amino)-3-oxo-1-(tetrahydro-2H-pyran-4-yl)propan-2-yl)carbamate] are within 1.5-fold of each other in IC50: 0.01 µM for the first, 0.0086 µM for the second.

`O=C(C[C@@H](c1ccc(F)cc1)c1cc(F)cc(F)c1)Nc1cncc(F)c1CC[C@H]1CNCCN1S(=O)(=O)NCC(F)CCl` (stereo partly drawn) [Example 339, (3S)-N-[4-(2-{(2S)-1-[(3-chloro-2-fluoropropyl)sulfamoyl]piperazin-2-yl}ethyl)-5-fluoropyridin-3-yl]-3-(3,5-difluorophenyl)-3-(4-fluorophenyl)propanamide] and `O=C(C[C@@H](c1ccc(Cl)cc1)C1CCS(=O)(=O)CC1)Nc1cccc(F)c1CC[C@H]1CNCCN1S(=O)(=O)c1ccccc1` [Example 36, (3R)-3-(4-chlorophenyl)-3-(1,1-dioxidotetrahydro-2H-thiopyran-4-yl)-N-(3-fluoro-2-{2-[(2S)-1-(phenylsulfonyl)piperazin-2-yl]ethyl}phenyl) propanamide] are within 1.5-fold of each other in IC50: 0.04 µM for the first, 0.029 µM for the second.

`C[C@H]1CNC[C@H](CCc2c(F)cccc2NC(=O)[C@@H](N)[C@H](c2cccc(F)c2)c2cccc(Cl)c2)N1S(=O)(=O)C1CC1` [Example 176, (βR)-3-chloro-N-(2-{2-[(2S,6S)-1-(cyclopropylsulfonyl)-6-methylpiperazin-2-yl]ethyl}-3-fluorophenyl)-β-(3-fluorophenyl)-L-phenylalaninamide] and `C[C@H]1CNC[C@H](CCc2c(F)cccc2NC(=O)[C@@H](N)C(c2cccc(F)c2)c2cccc(F)c2)N1S(=O)(=O)c1ccccc1Cl` [Example 137, N-[2-(2-{(2S,6S)-1-[(2-chlorophenyl)sulfonyl]-6-methylpiperazin-2-yl}ethyl)-3-fluorophenyl]-3-fluoro-β-(3-fluorophenyl)-L-phenylalaninamide] are within 1.5-fold of each other in IC50: 0.19 µM for the first, 0.24 µM for the second.

Compared with `COC(=O)N[C@H](C(=O)Nc1cccc(F)c1CC[C@H]1CNC[C@H](C)N1S(=O)(=O)c1ccccc1Cl)C(c1cccc(F)c1)c1cccc(F)c1` [Example 138, N-[2-(2-{(2S,6S)-1-[(2-chlorophenyl)sulfonyl]-6-methylpiperazin-2-yl}ethyl)-3-fluorophenyl]-3-fluoro-β-(3-fluorophenyl)-Nα-(methoxycarbonyl)-L-phenylalaninamide], `COC(=O)NC(C(=O)Nc1cccc(F)c1CC[C@H]1CNC[C@@H](C)N1S(=O)(=O)c1ccc(C(F)F)cc1)[C@@H](c1ccc(Cl)cc1)C1CCOCC1` (stereo partly drawn) [Example 266] is 5.8-fold lower in IC50: 0.15 µM for the first, 0.026 µM for the second. The second is the more potent here.

For `CC(C)[C@H](c1ccc(Cl)cc1)[C@H](N)C(=O)Nc1cccc(F)c1CC[C@H]1CNC[C@H](C)N1S(C)(=O)=O` [Example 122, (βR)-4-chloro-N-(3-fluoro-2-{2-[(2S,6S)-6-methyl-1-(methylsulfonyl)piperazin-2-yl]ethyl}phenyl)-β-(1-methylethyl)-L-phenylalaninamide], the IC50 was 0.36 µM.

Same assay, conditions: MT4-GFP cells infected with HIV-1 H9IIIB; 50% normal human serum; mean of at least two independent experiments; read-out: Cell-based IP

With `COC(=O)NC(C(=O)NC1CC1CC[C@H]1CNCCN1S(=O)(=O)c1ccccc1)C(c1ccc(F)cc1)c1ccc(F)cc1` (single isomer, unassigned) [Example 363] the IC50 was 0.37 µM.
